This note sets out measurements from patent US8992990B2, “Magnetic nanocomposite for inhibiting/treating cancer and method for fabricating the same” (Chang Gung University, priority 2009, dated 2015).

Broadly, the half-life is how long it takes for the measured level to halve. Lower therefore signals rapid decline.

The subject of one data set is mouse glioma cells (C6). In words: In vitro toxicity / cell growth inhibition, XTT assay, C6 cells. Type of data set: cell-based. The note with it: 100 μM, 12 hours later. In general terms: Formazan colour is commonly taken as a measure of viable cells.
Data set [1] can be described thus: Storage stability, residual activity by Bratton-Marshall assay. An excerpt:
Use the Bratton-Marshall assay to detect the residual activities after the storages of 1-30 days for comparing the storage stabilities. Refer to FIGS. 5(a)-5(c).

The test system of another data set is human glioma cells (U87). Put plainly: In vitro toxicity / cell growth inhibition, XTT assay, U87 cells. As to conditions: 100 μM, 72 hours later. In kind it is cell-based.

Procedure for human glioma cells (U87): Place 150 μL of a mixture liquid containing 10000 human glioma cells (U87) into every well of a 96-well culture plate. Place the culture plates in a humidified incubator at a temperature of 37 C.° and with 5% CO2 to enable adherent growth of the cells. […] Once cell counting begins, remove RPMI1640 and add 120 μL of an XTT reaction liquid (2,3-Bis(2-methoxy-4-nitro-5-sulfophenyl)-2H-tetrazolium-5-carboxanili de inner salt).
Procedure for mouse glioma cells (C6): Place 150 μL of a mixture liquid containing 10000 mouse glioma cells (C6) into every well of a 96-well culture plate. Place the culture plates in a humidified incubator at a temperature of 37 C.° and with 5% CO2 to enable adherent growth of the cells. […] Once cell counting begins, remove RPMI1640 and add 120 μL of an XTT reaction liquid (2,3-Bis(2-methoxy-4-nitro-5-sulfophenyl)-2H-tetrazolium-5-carboxanili de inner salt).

With `O=NN(CCCl)C(=O)NCCCl` [BCNU, 1,3-bis(2-chloroethyl)-1-nitrosourea], in the data set “Solubility in water”, the solubility in water result was “low solubility in water”. The “C6 cell growth-inhibition ratio” value in the data set on mouse glioma cells (C6) was 53%. In addition, the half-life in data set [1] (storing at 4° C.) is 300 h; in data set [1] (storing at 25° C.), 22 h; in data set [1] (storing at 37° C.) it was 12 h. Moreover, in data set [1] (stored for 30 days), the remains after storage is on record as 22%. For the same compound, the “U87 cell growth-inhibition ratio” value in the data set on human glioma cells (U87) is 49%.
